Columns and labels:
T-cell [1] = assay: Inhibition of DNA synthesis in PMA-ionomycin stimulated human T cells after 4 hrs by [3H]thymidine incorporation assay; type: functional, cell-based
T-cell [2] = assay: Reduction in extracellular lactate production in PMA-ionomycin stimulated human T cells after 4 hrs; type: functional, cell-based
T-cell [3] = assay: Increase in intracellular lactate production in PMA-ionomycin stimulated human T cells after 4 hrs; type: functional, cell-based
[4] = Antiproliferative activity against human T cells assessed as inhibition of PMA-ionomycin stimulated cell proliferation after 3 days by [3H]thymidine incorporation assay; type: functional, cell-based
PBMC = assay: Antiproliferative activity against human PBMC assessed as inhibition of PMA/ionomycin-stimulated cell proliferation by [3H]thymidine incorporation assay; type: functional, cell-based
[5] = target: T1, Monocarboxylate transporter 1 (Homo sapiens, UniProt P53985); assay: Displacement of [3H]5-[(3-hydroxypropyl)thio]-3-methyl-1-[2-(methyl-t)propyl-2,3-t2]-6-(1-naphthalenylmethyl)-1H-pyrrolo[3,4-d]pyrimidine-2,4(3H,6H)-dione from MCT1 in human Jurkat cell membranes
T1 sequence (P53985 whole entry): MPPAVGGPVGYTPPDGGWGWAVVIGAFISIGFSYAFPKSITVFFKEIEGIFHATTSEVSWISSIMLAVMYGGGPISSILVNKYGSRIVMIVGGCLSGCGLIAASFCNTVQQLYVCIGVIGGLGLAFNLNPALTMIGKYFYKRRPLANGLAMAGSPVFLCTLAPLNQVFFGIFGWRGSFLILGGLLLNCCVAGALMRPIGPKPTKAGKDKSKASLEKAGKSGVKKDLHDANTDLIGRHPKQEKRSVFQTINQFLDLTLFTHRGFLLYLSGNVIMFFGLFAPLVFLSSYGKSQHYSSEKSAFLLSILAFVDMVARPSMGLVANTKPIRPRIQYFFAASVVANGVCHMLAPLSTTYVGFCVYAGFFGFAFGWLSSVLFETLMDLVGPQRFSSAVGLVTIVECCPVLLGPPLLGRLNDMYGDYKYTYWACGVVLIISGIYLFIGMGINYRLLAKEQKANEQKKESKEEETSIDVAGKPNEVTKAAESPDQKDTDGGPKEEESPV

[6] = target: T1, Monocarboxylate transporter 1; assay: Displacement of [3H]5-[(3-hydroxypropyl)thio]-3-methyl-1-[2-(methyl-t)propyl-2,3-t2]-6-(1-naphthalenylmethyl)-1H-pyrrolo[3,4-d]pyrimidine-2,4(3H,6H)-dione from human MCT1 expressed in INS1 cell membrane; type: cell membranes; settings: read-out: pKi (converted)

Structure (SMILES): CC(C)Cn1c(=O)n(C)c(=O)c2c(C(=O)N3CC[C@@H](O)C3)c(Cc3ccnc4ccccc34)sc21
- IC50 (T-cell [1]): 9.77 nM
- IC50 (T-cell [2]): 11.5 nM
- IC50 (T-cell [3]): 4.57 nM
- IC50 [4]: 3.24 nM

Structure (SMILES): CC(C)Cn1c(=O)n(C)c(=O)c2c(C(=O)N3CCCC3)c(Cc3ccccc3C(F)(F)F)sc21
- IC50 (T-cell [1]): 10 nM
- IC50 (T-cell [2]): 5.37 nM
- IC50 (T-cell [3]): 3.31 nM
- IC50 [4]: 2.88 nM

Structure (SMILES): CC(C)Cn1c(=O)n(C)c(=O)c2c(C(=O)N3CC[C@@H](O)C3)c(Cc3c[nH]c4ccccc34)sc21
- IC50 (T-cell [1]): 3.31 nM
- IC50 (T-cell [2]): 4.27 nM
- IC50 (T-cell [3]): 1.55 nM
- IC50 [4]: 0.912 nM

Structure (SMILES): CC(C)Cn1c(=O)n(C)c(=O)c2cn(Cc3cccc4ccccc34)cc21
- IC50 (PBMC): 56.2 nM
- Ki [5]: 15.5 nM
- Ki [6]: 46.8 nM

Structure (SMILES): CC(C)Cn1c(=O)n(C)c(=O)c2c(SCCCO)c(Cc3ccccc3C(F)(F)F)sc21
- IC50 (PBMC): 0.257 nM

— ChEMBL document CHEMBL1221163, “Monocarboxylate transporter MCT1 is a target for immunosuppression” (Nat Chem Biol, 2005)
